According to patent US20210186947A1, “TOMM6-INTERACTING EXTRACTS AND COMPOUNDS FOR USE IN THE TREATMENT AND PROPHYLAXIS OF NERVOUS SYSTEM DISEASES, ATHEROSCLEROSIS, HEPATITIS B INFECTION AND HUMAN PAPILLOMA VIRUS (HPV) INFECTION” (ETH ZURICH, priority 2018, published 2021):

What was measured:
PHF-tau = assay: Hippocampal PHF-tau in the Tg-TauP301L model of tauopathy (AT8 antibody); format: in vivo; conditions: 12-month-old Tg-Tau-P301L mice treated for six months
[1] = system: HBsAg (hepatitis B virus major surface antigen); assay: HBsAg aggregation in yeast, immunoblot detection of HBsAg; format: cell-based; conditions: alizarin 10 microg/ml and 1 microg/ml (FIG. 16D)
Text: Recombinant HBsAg cDNA (synthesized by GeneScript, Piscataway, N.J., USA) was inserted into the expression vector p42K-TEF (D3011001-1 Dualsystems Biotech AG, Zurich). Yeast transformants were selected in the presence of G418 in the yeast growth medium (YPD; Bacto-yeast extract 10 g/L, Bacto-peptone 20 g/L and D-Glucose […]). Yeast (Saccharomyces cerevisae) strain INVSc1 was used (Invitrogen GmbH, Nr. C810-00). After 3-4 days of cultivation to allow for protein expression, yeast cells were harvested by centrifugation, followed by washing with ice-cold PBS. The yeast cell pellet was immediately frozen at −70° C. Proteins were extracted for 30 min. at 4° C. with solubilization buffer (1% sodium deoxycholate, 0.1% SDS, 0.1% NP40, 5 mM EDTA, 50 mM Tris, pH 8.0) supplemented with protease/phosphatase inhibitors (Cat. No. P8349, and/or PPC1010, Sigma-Aldrich, St. Louis, Mo., USA). […] Protein were separated by urea-containing SDS-PAGE (7.5-10%) under reducing conditions, transferred to PVDF membranes by electrophoretic protein transfer in a tank transfer cell (Mini Trans-Blot cell, Bio-Rad GmbH, Munchen, Germany), and transferred HBsAg proteins were detected in immunoblot with HBsAg-specific antibodies raised in rabbit against an N-terminal epitope of HBsAg, or by a monoclonal HBsAg antibody produced in mouse (SAB4700767, Sigma-Aldrich, St. Louis, Mo., USA). […]

[2] = Measurement of serum level in dogs by HPLC; format: in vivo, German shepherd dogs; conditions: for peak serum concentration: t=1 h
Method: (§1) Serum concentrations of alizarin were determined with serum isolated from the blood of male and female German shepherd dogs (age: 8-9 months) taken at different time points (0.5 h, 1 h, 2 h, 4 h, 6 h, 8 h, 24 h) after oral intake of the indicated doses for 4 weeks. In addition, serum concentrations of alizarin (Compound-1) were determined in male and female Sprague Dawley rats (body weight: 200-250 g) treated for 1 month and/or three months by oral gavage of alizarin at a once daily dose of 100 mg/kg, 50 mg/kg, 25 mg/kg and 12.5 mg/kg. Serum proteins were removed by acetonitrile precipitation, and alizarin was extracted by chloroform before separation on an HPLC-C18 column (Poroshell 120 EC-C18, 3.0×50 mm, Agilent) with an HPLC system (Agilent 1100 Series) and detection at OD245 nm. For quantitative determination of Compound-7 and Compound-10F in rat and dog serum, serum proteins were also removed by acetonitrile precipitation before HPLC analysis as detailed above and detection at OD254 nm.

Tomm6 = target: T1, Tomm6 (Mus musculus, UniProt Q9CQN3); assay: Immunoblot detection of hippocampal Tomm6 protein in treated Tg2576 mice; format: in vivo; conditions: aged Tg2576 mice treated for 6 months
T1 construct: hippocampi were isolated from 5-10 aged Tg2576 mice, pulverized under liquid nitrogen and solubilized; from tissue; host or cells: hippocampus of Tg2576 mice
T1 sequence (Q9CQN3 1-74): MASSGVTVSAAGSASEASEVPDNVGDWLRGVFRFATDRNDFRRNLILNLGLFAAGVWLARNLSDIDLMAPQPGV

[3] = humans; cited from earlier work
[4] = Measurement of serum level in rats by HPLC; format: in vivo, Sprague Dawley rats
Method: as §1

mammalian cells = mammalian cells and in vivo; cited from earlier work

O=C1c2ccccc2C(=O)c2c1ccc(O)c2O [Compound-1, 1,2-dihydroxyanthraquinone]
hippocampal content of PHF-tau (PHF-tau): significantly decreased hippocampal content of PHF-tau
aggregation and assembly of HBsAg [1]: inhibited the aggregation and assembly of HBsAg
oral bioavailability / serum concentrations after oral intake [2]: achieves therapeutic serum concentrations
time of second serum peak ([2]; after oral intake): 4 h
peak serum concentration ([2]; repeated once daily oral dose of 2 mg/kg): 0.146 ± 0.017 µg/mL
peak serum concentration ([2]; repeated once daily oral dose of 6 mg/kg): 0.467 ± 0.022 µg/mL
time of peak serum concentration ([2]; repeated once daily oral intake of 2 mg/kg/day and 6 mg/kg/day): 1 h
hippocampal protein content of Tomm6 (Tomm6): substantially increased
toxicity of long-term treatment for several years [3]: is not toxic
oral bioavailability / serum concentrations after oral intake ([4]; rats): achieves therapeutic serum concentrations
oral doses required to achieve equivalent peak serum concentrations, higher in rats compared to dogs ([4]; rats vs dogs): approximately 10 fold
tumor promotion (mammalian cells): not a tumor promotor
